Results published in patent US12655090B2, “Cyclopropylamide compounds against parasites in fish” (Intervet Inc., priority 2021, dated 2026).
pEC50: −log10 of the molar value. Like-named read-outs stand apart in the source and are kept apart here.

Columns and labels:
[1] = system: Copepodids (juvenile sea lice stage of Lepeophtheirus salmonis); test: Juvenile sea lice contact assay; conditions: approximately 24 hours continuous exposure in seawater, read-out: Sea lice inhibition (% of dead+damaged copepodids); for inhibition at 0.01 µM: test concentration 10 nM; for inhibition at 0.0001 µM: test concentration 0.1 nM; for inhibition at 0.1 µM: test concentration 100 nM; for inhibition at 10 pM: test concentration 0.01 nM; for inhibition at 0.001 µM: test concentration 1 nM
Protocol: Copepodids (juvenile sea lice stage of Lepeophtheirus salmonis) were exposed to seawater spiked with declining concentrations of a test compound (dissolved in a DMSO sea-water mixture). Sea lice inhibition (% of dead+damaged copepodids) was assessed after approximately 24 hours of continuous exposure. The vitality of used parasites was confirmed in a negative (solvent) control group.

[2] = system: Mobile stages of sea lice (pre-adults, adults of Lepeophtheirus salmonis); test: Adult sea lice contact assay; conditions: assessed after approximately 1 and 24 hours of continuous exposure, read-out: EC50 (sea lice inhibition, dead+damaged sea lice)
Protocol: Mobile stages of sea lice (i.e., pre-adults, adults of Lepeophtheirus salmonis) were exposed to seawater spiked with declining concentrations of a test compound (dissolved in a PEG sea-water mixture). Sea lice inhibition (% of dead+damaged sea lice) was assessed after approximately 1 and 24 hours of continuous exposure in comparison to a negative (solvent) control group.

[3] = system: Lepeophtheirus salmonis sea lice on salmon (Salmo salar); test: Salmon in vivo efficacy trial using gavage administration; conditions: po
Protocol: Salmon (Salmo salar) were treated once orally by gavage at a dose of 5 mg/kg bodyweight per fish (Day 0). As formulation DMSO 5%/fish oil 95% was used. Salmon of the negative control group received only the excipients of the formulation. The fish were infested with Lepeophtheirus salmonis copepodids twice before treatment (i.e., around day −28 and day −3) and once after treatment (i.e., day 17). […] Around day 28 (end of animal phase), fish were euthanized, and lice on each fish were classified ((pre-)adult or juvenile stage) and counted. […] Efficacy is expressed as a % reduction of sea lice in treated groups versus a control group, using the Abbott's formula.

[4] = system: Lepeophtheirus salmonis sea lice on salmon (Salmo salar); test: Salmon in vivo efficacy trial using in-feed administration; conditions: 1 mg/kg fish biomass via coated feed for 7 consecutive days
Protocol: Commercial fish feed pellets were coated with formulated test compound. As formulation DMSO 5%/fish oil 95% was used. Salmon (Salmo salar) were treated orally with 1 mg/kg fish biomass via coated feed for 7 consecutive days. Salmon of the negative control groups received only feed coated with the excipients of the formulation. Fish of the therapeutic groups were infested with Lepeophtheirus salmonis copepodids twice before treatment (around day −28 and day −3).

[5] = 168 h, read-out: therapeutic efficacy against (pre-)adult sea lice (% reduction vs control, Abbott's formula), once orally by gavage 5 mg/kg bodyweight, day -28 infestation, counted at day 7
[6] = 672 h, read-out: prophylactic efficacy at re-infestation on Day 17 (% reduction vs control, Abbott's formula), once orally by gavage 5 mg/kg bodyweight, re-infestation day 17, counted around day 28
[7] = 672 h, read-out: therapeutic efficacy against juvenile sea lice (% reduction vs control, Abbott's formula), once orally by gavage 5 mg/kg bodyweight, day -3 infestation, counted around day 28

Row | SMILES | inhibition at 0.01 µM [1] | pEC50 [2] | inhibition in vivo at 5 mg/kg [3, 5] | inhibition in vivo at 5 mg/kg [3, 6] | inhibition in vivo at 5 mg/kg [3, 7] | also measured
1 | N#CC1(NC(=O)c2cc(NC(=O)[C@H]3[C@H](c4cc(Cl)c(Cl)c(Cl)c4)C3(Cl)Cl)ccc2Cl)CC1 [Compound 1541] | 100% | 8.00 to 9.00 | 80% | 100% | 100% | therapeutic efficacy against juvenile sea lice ([4]; day -3 infestation, counted around day 25): 100%; therapeutic efficacy against (pre-)adult sea lice ([4]; day -28 infestation, counted around day 8): 100%; prophylactic efficacy against re-infestation after treatment (D14) ([4]; re-infestation D14): 100%; prophylactic efficacy against re-infestation after treatment (D28) ([4]; re-infestation D28): 100%
2 | O=C(NCC(F)(F)F)c1cc(NC(=O)[C@H]2[C@H](c3ccc(F)c(F)c3)C2(Cl)Cl)ccc1Cl [Compound 1584] |  | ≥ 9.00 | 100% |  |  | inhibition at 0.0001 µM [1]: 100%
3 | N#CC1(NC(=O)c2cc(NC(=O)[C@H]3[C@H](c4ccc(Br)c(Cl)c4)C3(Cl)Cl)ccc2Cl)CC1 [Compound 1585] |  | 8.00 to 9.00 | 100% |  | 100% | inhibition at 0.1 µM [1]: 100%
4 | N#CC1(NC(=O)c2cc(NC(=O)[C@H]3[C@H](c4ccc(C(F)F)c(F)c4)C3(Cl)Cl)ccc2Cl)CC1 [Compound 1587] |  | ≥ 9.00 | 80% |  |  | inhibition at 0.1 µM [1]: 100%
5 | O=C(NCC(F)(F)F)c1cc(NC(=O)[C@H]2[C@H](c3cc(Cl)cc(Cl)c3)C2(Cl)Cl)ccc1Cl [Compound 1592] |  | ≥ 9.00 | 100% |  | 100% | inhibition at 0.0001 µM [1]: 80%
6 | O=C(NCC(F)(F)F)c1cc(NC(=O)[C@H]2[C@H](c3cc(F)c(F)c(F)c3)C2(Cl)Cl)ccc1Cl [Compound 1593] |  | ≥ 9.00 | 100% |  | 80% | inhibition at 10 pM [1]: 100%
7 | O=C(NC1CC(F)(F)C1)c1cc(NC(=O)[C@H]2[C@H](c3cccc(C(F)(F)F)c3)C2(Cl)Cl)ccc1Cl [Compound 1601] |  | 8.00 to 9.00 | 100% |  | 100% | inhibition at 0.001 µM [1]: 100%
8 | N#CC1(NC(=O)c2cc(NC(=O)C3C(c4cc(Cl)cc(Cl)c4)C3(Cl)Cl)ccc2F)CC1 (centres unmarked) [Compound 1605] |  | ≥ 9.00 | 100% |  | 100% | inhibition at 10 pM [1]: 100%
9 | N#CC1(NC(=O)c2cc(NC(=O)[C@H]3[C@H](c4ccc(Cl)c(F)c4)C3(Cl)Cl)ccc2Cl)CC1 [Compound 1606] |  | 7.60 to 8.00 | 100% |  | 100% | inhibition at 0.1 µM [1]: 100%
10 | N#CC1(NC(=O)c2cc(NC(=O)[C@H]3[C@H](c4ccc(F)c(Cl)c4)C3(Cl)Cl)ccc2Cl)CC1 [Compound 1608] |  | ≥ 9.00 | 100% |  | 100% | inhibition at 10 pM [1]: 100%
11 | N#CC1(NC(=O)c2cc(NC(=O)[C@H]3[C@H](c4cc(Cl)c(F)c(Cl)c4)C3(Cl)Cl)ccc2Cl)CC1 [Compound 1609] | 100% | 8.00 to 9.00 | 100% | 100% | 100% | 
12 | C#CC1(NC(=O)c2cc(NC(=O)[C@H]3[C@H](c4cc(Cl)cc(Cl)c4)C3(Cl)Cl)cc(F)c2F)CC1 [Compound 1617, 5-((1R,3R)-2,2-dichloro-3-(3,5-dichlorophenyl)cyclopropane-1-carboxamido)-N-(1-ethynylcyclopropyl)-2,3-difluorobenzamide] |  | ≥ 9.00 | 100% | 100% | 100% | inhibition at 0.1 µM [1]: 100%
13 | O=C(NC1CC1)c1cc(NC(=O)[C@H]2[C@H](c3cc(Cl)cc(Cl)c3)C2(Cl)Cl)cc(F)c1F [Compound 1618] | 100% | ≥ 9.00 | 100% | 100% | 100% | 
14 | CC1(NC(=O)c2cc(NC(=O)[C@H]3[C@H](c4cc(Cl)cc(Cl)c4)C3(Cl)Cl)ccc2Cl)CC1 [Compound 1619] | 100% | ≥ 9.00 | 100% |  | 80% | 
15 | C#CC1(NC(=O)c2cc(NC(=O)[C@H]3[C@H](c4cc(Cl)cc(Cl)c4)C3(Cl)Cl)ccc2Cl)CC1 [Compound 1620, 2-chloro-5-((1R,3R)-2,2-dichloro-3-(3,5-dichlorophenyl)cyclopropane-1-carboxamido)-N-(1-ethynylcyclopropyl)benzamide] | 100% | ≥ 9.00 | 100% |  | 80% | 
16 | O=C(NC1CC1)c1cc(NC(=O)[C@H]2[C@H](c3cc(Cl)cc(Cl)c3)C2(Cl)Cl)ccc1Cl [Compound 1621] | 100% | ≥ 9.00 | 100% |  | 80% | 
17 | C#CCNC(=O)c1cc(NC(=O)[C@H]2[C@H](c3cc(Cl)cc(Cl)c3)C2(Cl)Cl)ccc1Cl [Compound 1622] | ≥ 80% | ≥ 9.00 | 100% |  |  | 
18 | N#CC1(NC(=O)c2cc(NC(=O)[C@H]3[C@H](c4cc(F)c(F)c(F)c4)C3(Cl)Cl)ccc2F)CC1 [Compound 1623] |  | 8.00 to 9.00 | 100% |  | 80% | inhibition at 0.0001 µM [1]: 100%
19 | N#CC1(NC(=O)c2cc(NC(=O)[C@H]3[C@H](c4cc(F)c(F)c(F)c4)C3(Cl)Cl)ccc2Cl)CC1 [Compound 1624] |  | 8.00 to 9.00 | 100% | 80% | 80% | inhibition at 0.0001 µM [1]: 100%
20 | O=C(NC1CC(F)(F)C1)c1cc(NC(=O)[C@H]2[C@H](c3cc(Cl)cc(Cl)c3)C2(Cl)Cl)ccc1Cl [Compound 1625] |  | ≥ 9.00 | 100% | 100% | 100% | inhibition at 0.1 µM [1]: 100%
21 | CC1(NC(=O)c2cc(NC(=O)[C@H]3[C@H](c4cc(Cl)cc(Cl)c4)C3(Cl)Cl)ccc2F)CC1 [Compound 1626] | ≥ 80% | 8.00 to 9.00 | 100% |  | 80% | 
22 | O=C(NC1CC(F)(F)C1)c1cc(NC(=O)[C@H]2[C@H](c3cc(Cl)cc(Cl)c3)C2(Cl)Cl)cc(F)c1F [Compound 1628] | 100% | 8.00 to 9.00 | 100% | 100% | 100% | 
23 | O=C(NC1CC(F)(F)C1)c1cc(NC(=O)[C@H]2[C@H](c3cc(Cl)cc(Cl)c3)C2(Cl)Cl)ccc1F [Compound 1630] | 100% | ≥ 9.00 | 100% | 100% | 100% | 
24 | O=C(NC1CC1)c1cc(NC(=O)[C@H]2[C@H](c3cc(Cl)cc(Cl)c3)C2(Cl)Cl)ccc1F [Compound 1632] |  | ≥ 9.00 | 100% |  | 80% | inhibition at 10 pM [1]: 80%
25 | C#CC1(NC(=O)c2cc(NC(=O)[C@H]3[C@H](c4cc(Cl)cc(Cl)c4)C3(Cl)Cl)ccc2F)CC1 [Compound 1633, 5-((1R,3R)-2,2-dichloro-3-(3,5-dichlorophenyl)cyclopropane-1-carboxamido)-N-(1-ethynylcyclopropyl)-2-fluorobenzamide] |  | ≥ 9.00 | 100% | 80% | 100% | inhibition at 0.001 µM [1]: 80%
